The values that follow come from patent publication EP2698367A1, “Benzimidazoles for the treatment of cancer” (Max-Planck-Gesellschaft zur Förderung der Wissenschaften …, priority 2012, dated 2014).

Each structure is given as a SMILES string.

The target of one experiment is PDEδ farnesyl pocket (Homo sapiens, UniProt O43924). Nature of the experiment: Displacement titrations of labeled probe (fluorescence polarization) for the determination of KD values. Format: binding.
Chain of PDEδ farnesyl pocket (O43924 whole entry): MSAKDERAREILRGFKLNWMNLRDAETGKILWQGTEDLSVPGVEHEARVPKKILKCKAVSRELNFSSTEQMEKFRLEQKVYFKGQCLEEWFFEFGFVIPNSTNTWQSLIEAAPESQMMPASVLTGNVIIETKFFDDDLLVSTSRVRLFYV
Details: not given
An excerpt: The resulting solution was serially diluted, holding the concentrations of S54, PDEδ and DMSO constant. The sealed plates were shaken overnight at room temperature and centrifuged at the beginning of the next day. […] For the fitting of the data to a competition model the exact mathematical solution derived from the law of mass action was used as described by Roehrl et al.^3 Fraction bound data was fit using KD2 as the only fitting parameter and total ligand concentration as independent variable (OriginPro8.6, function codec from origin). [formula] • FSB: Fraction bound of fluorescent probe • KD1: Binding constant of fluorescent Probe determined from direct titration • KD2: Fitting parameter (Binding constant of unlabeld competitor) • LST: Total concentration of unlabeld small molecule competitor • RT: Total protein concentration
For the fitting of data to a competition model with cooperative binding of two benzimidazole fragments the program Scientist 3.0 was used. An experimental system was defined as a series of partial equations including the equilibrium relationships between the various species. Anisotropy data was converted to fraction bound and fitting was carried out in anlogy to a previously described set of equilibrium relationships by Goody and coworkers.^4. KD1 = ([A][PDEDf])/([APDED]) [formula] KD2 = ([L^2][PDEDf])/([LPDED]) [formula] • A:equilibrium conentration of free fluorophore • L: equilibrium concentration of free ligand • APDED: equilibrium concentration of bound fluorescent probe • LPDED: equilibrium conentration of bound small molecule • PDEDf: equilibrium conentration of free protein This model was used (together with equations describing the mass balance) to numerically simulate the FSB of fluorophore and compared with the experimental data.
Scientist input file: • // Micromath Scientist Model File • IndVars: LST • DepVars: A,L,APDED,LPDED,PDEDf,FSB • Params: ATOT,PDED,KD1,KD2 • LPDED= L^2*PDEDf/KD2 • APDED=A*PDEDf/KD1 • ATOT=A+APDED • LST=L+LPDED • PDED=PDEDf+APDED+LPDED • 0<A<ATOT • 0<L<LST • 0<PDEDf<PDED • FSB=1-A/ATOT • LST=0
The activity of the compounds was classified according to their Kd for the PDEδ farnesyl pocket into the following ranges: […]
As to `CC(C)CCn1c(CC(C)(C)C)nc2ccccc21` [Compound 35], the equilibrium dissociation constant (Kd) lay in the range of 100 to 1000 nM.

With `COc1ccc(Cc2nc3ccccc3n2Cc2ccccc2)cc1` [Compound 27], the Kd fell in the range of 100 to 1000 nM. The compound `c1ccc(Cn2c(CN3CCCCCC3)nc3ccccc32)cc1` [Compound 40] had a Kd of 100 to 1000 nM. `Oc1ccc(Cn2c(-c3ccc(O)cc3)nc3ccccc32)cc1` [Compound 15] had a dissociation constant (Kd) of 25 to 100 nM.

The experiment is the same for the next values; noted with them: Kd for the PDEδ farnesyl pocket; read-out: KD.
With `CCc1nc2ccccc2n1Cc1ccccc1F` [Compound 33], the Kd was in the range of 100 to 1000 nM.

As to `CCCCc1nc2ccccc2n1Cc1ccc(Cl)cc1` [Compound 29], the equilibrium dissociation constant (Kd) fell in the range of 100 to 1000 nM. In the case of `c1ccc(C2Nc3ccccc3-c3nc4ccccc4n32)nc1` (stereo not drawn) [Compound 02, 6-Pyiridyl-5,6-dihydrobenzo[4-5]imidazo[1,2-c]quinazoline], the Kd was over 1000 nM.

With `Cc1cccc(-c2nc3ccccc3n2CCc2ccccc2)c1` [Compound 36], the Kd is over 1000 nM.

As to `C=C(C)Cn1c(CC(C)C)nc2ccccc21` [Compound 31], the equilibrium dissociation constant (Kd) is 100 to 1000 nM. Turning to `CCCC(O)c1nc2ccccc2n1Cc1c(F)cccc1Cl` (stereo not drawn) [Compound 41], the dissociation constant (Kd) lay in the range of 100 to 1000 nM. In the case of `O=C(NCCN1CCCC1)C1CCN(c2nc3ccccc3n2Cc2ccccc2F)CC1` [Compound 17], the Kd is 100 to 1000 nM.

Regarding `CC(C)(C)OC(=O)N1CCC(C(COc2ccc(-c3nc4ccccc4n3Cc3ccccc3)cc2)n2c(-c3ccccc3)nc3ccccc32)CC1` (stereo not drawn) [Compound 08, tert-Butyl-4-(2-(4-(1-benzyl-1H-benzo[d]imidazol-2-yl)phenoxy)-1-(2-phenyl-1H-benzo[d]imidazol-1-yl)ethyl)piperidine-1-carboxylate], the Kd was over 1000 nM. With `COc1cc(OC)cc(C(=O)N2CCN(c3nc4ccccc4n3Cc3ccccc3)CC2)c1` [Compound 45], the Kd is 100 to 1000 nM.

Regarding `COc1ccc(-c2nc3ccccc3n2Cc2c(F)cccc2Cl)cc1` [Compound 50], the Kd is 100 to 1000 nM. Turning to `Fc1ccc(Cn2c(-c3cccc(Br)c3)nc3ccccc32)cc1` [Compound 43], the Kd is over 1000 nM.

Consider `C=CCOc1ccc(-c2nc3ccccc3n2Cc2ccccc2C)cc1` [Compound S04, 2-(4-(Allyloxy)phenyl)-1-(2-methylbenzyl)-1H-benzo[d]imidazole], for which the Kd was over 1000 nM. Still for that read-out and setting: with `CN(CCCNC(=O)C1CCN(c2nc3ccccc3n2Cc2ccc(F)cc2)CC1)C1CCCCC1` [Compound 21] the figure was 100 to 1000 nM. `CC1CCCN(C(=O)C2CCN(c3nc4ccccc4n3Cc3cccc(F)c3)CC2)C1` (stereo not drawn) [Compound 23]: the Kd was over 1000 nM. Regarding `C=CCOc1ccc(-c2nc3ccccc3n2Cc2ccc(F)cc2)cc1` [Compound S06, 2-(4-(Allyloxy)phenyl)-1-(4-fluorobenzyl)-1H-benzo[d]imidazole], the dissociation constant (Kd) fell in the range of 100 to 1000 nM.

Consider `Cc1ccccc1Cn1c(CC(C)(C)C)nc2ccccc21` [Compound 34], for which the Kd fell in the range of 25 to 100 nM.

Regarding `CCC(CC)c1nc2ccccc2n1Cc1ccccc1` [Compound 30], the Kd is over 1000 nM.

Take `CCOc1ccc(CNC(=O)C2CCN(c3nc4ccccc4n3Cc3ccc(F)cc3)CC2)cc1` [Compound 20]: the dissociation constant (Kd) is 25 to 100 nM. In the case of `Oc1ccc(-c2nc3ccccc3n2Cc2ccc(F)cc2)cc1` [Compound S09, 4-(1-(4-Fluorobenzyl)-1H-benzo[d]imidazol-2-yl)phenol], the dissociation constant (Kd) lay within 100 to 1000 nM. On the same count and under the same terms, with `C#CCn1c(-c2ccccc2Br)nc2ccccc21` [Compound 38] the figure was over 1000 nM; with `OCC(C1CCCCC1)n1c(-c2ccccc2)nc2ccccc21` (stereo not drawn) [Compound S16, 2-Cyclohexyl-2-(2-phenyl-1H-benzo[d]imidazol-1-yl)ethanol], over 1000 nM; with `Ic1ccc(Cn2c(-c3ccc(I)o3)nc3ccccc32)o1` [Compound 48], 25 to 100 nM. With `Cc1ccccc1Cn1c(N2CCC(C(=O)NCCCN3CC(C)CC(C)C3)CC2)nc2ccccc21` (stereo not drawn) [Compound 25], the dissociation constant Kd fell in the range of 100 to 1000 nM. With `Cc1ccc(-c2nc3ccccc3n2Cc2ccc(F)cc2)o1` [Compound 42], the Kd was 100 to 1000 nM.

For the compound `C=CCOc1ccc(-c2nc3ccccc3n2Cc2ccccn2)cc1` [Compound S03, 2-(4-(Allyloxy)phenyl)-1-(pyridin-2-ylmethyl)-1H-benzo[d]imidazole], the Kd is over 1000 nM. The same measure, in the same setting: under `Oc1ccc(-c2nc3ccccc3n2Cc2ccccn2)cc1` [Compound S08, 4-(1-(Pyridin-2-ylmethyl)-1H-benzo[d]imidazol-2-yl)phenol] stands over 1000 nM; under `O=C(NCc1ccccc1)C(C1CCCCC1)n1c(-c2ccccc2)nc2ccccc21` (stereo not drawn) [Compound S12, N-Benzyl-2-cyclohexyl-2-(2-phenyl-1H-benzo[d]imidazol-1-yl)acetamide], 100 to 1000 nM. Take `Cc1ccccc1Cn1c(Cc2ccccc2)nc2ccccc21` [Compound 28]: the Kd was over 1000 nM.

Consider `Cc1ccc(NC(=O)N2CCN(c3nc4ccccc4n3Cc3ccccc3)CC2)c(C)c1` [Compound 44], for which the dissociation constant (Kd) was in the range of 100 to 1000 nM. `O=C(NCCO)C(c1ccccc1)n1c(-c2ccccc2)nc2ccccc21` (stereo not drawn) [Compound 51]: the Kd is over 1000 nM.

With `Cc1ccc(OCc2nc3ccccc3n2C(C)c2ccccc2)cc1` (stereo not drawn) [Compound 16], the Kd lay within 100 to 1000 nM. Take `Cc1ccc(C)c(Cn2c(CCNC(=O)CCCC(C)O)nc3ccccc32)c1` (stereo not drawn) [Compound 47]: the Kd was over 1000 nM. Regarding `Cc1ccccc1Cn1c(N2CCC(C(=O)O)CC2)nc2ccccc21` [Compound 22], the equilibrium dissociation constant (Kd) was over 1000 nM.

On to `Oc1ccc(-c2nc3ccccc3n2Cc2ccccc2)cc1` [Compound S07, 4-(1-Benzyl-1H-benzo[d]imidazol-2-yl)phenol], for which the Kd fell in the range of 25 to 100 nM. With `c1ccc(Cn2c(-c3ccc(OCCn4c(-c5ccccc5)nc5ccccc54)cc3)nc3ccccc32)cc1` [Compound 06, 1-Benzyl-2-(4-(2-(2-phenyl-1H-benzo[d]imidazol-1-yl)ethoxy)phenyl)-1H-benzo[d]imidazole], the dissociation constant (Kd) lay in the range of 100 to 1000 nM. Regarding `CC(C)Cc1nc2ccccc2n1Cc1c(F)cccc1Cl` [Compound 37], the dissociation constant (Kd) lay in the range of 25 to 100 nM. For the compound `O=C(c1ccccc1Cl)N1CCN(c2nc3ccccc3n2Cc2ccccc2)CC1` [Compound 46], the dissociation constant Kd lay in the range of 100 to 1000 nM.

`COc1cccc(C(=O)C=Cc2nc3ccccc3n2Cc2ccccc2)c1` [Compound 49]: the dissociation constant (Kd) is over 1000 nM. For `COc1cccc(CNC(=O)C2CCN(c3nc4ccccc4n3Cc3ccccc3C)CC2)c1` [Compound 19], the Kd lay in the range of 100 to 1000 nM. Turning to `C=CCOc1ccc(-c2nc3ccccc3n2Cc2ccccc2)cc1` [Compound S02, 2-(4-(Allyloxy)phenyl)-1-benzyl-1H-benzo[d]imidazole], the Kd is over 1000 nM. For `c1ccc(CCn2c(-c3ccco3)nc3ccccc32)cc1` [Compound 26], the Kd was in the range of 100 to 1000 nM. Take `CCN(CCCNC(=O)C1CCN(c2nc3ccccc3n2Cc2ccc(C)cc2)CC1)c1cccc(C)c1` [Compound 24]: the Kd is over 1000 nM. For `Clc1cccc(Cn2c(-c3ccco3)nc3ccccc32)c1` [Compound 39], the Kd lay in the range of 100 to 1000 nM. As to `C=C(C)Cn1c(-c2ccc(N(C)C)cc2)nc2ccccc21` [Compound 14], the Kd lay within 100 to 1000 nM. `COc1ccccc1OCc1nc2ccccc2n1Cc1ccccc1Cl` [Compound 13]: the equilibrium dissociation constant (Kd) was 100 to 1000 nM. Take `CC(C)Cc1nc2ccccc2n1Cc1ccccc1` [Compound 32]: the Kd lay in the range of 100 to 1000 nM.

Staying with this experiment, now noted: read-out: KD.
Take `O=C(NCCCN1CCN(c2ccc(O)cc2)CC1)C1CCN(c2nc3ccccc3n2Cc2cccc(F)c2)CC1` [Compound 18]: the Kd fell in the range of 100 to 1000 nM.
